In patent publication US20100261682A1, “Method and Means for the Treatment of Cachexia” (Bioneris AB, priority 2007, published 2010):

Columns and labels:
[1] = test system: mice bearing the MAC16 tumour; assay: Body weight change in cachectic mice bearing the MAC16 tumour treated with alpha-trinositol (Example 1); type: in vivo, NMRI mice
Description: Materials. Alpha-trinositol (1-D-Myo-inositol 1,2,6-triphosphate) was prepared according to U.S. Pat. No. 4,777,134. In a glass ampoule a stock solution was prepared by dissolving 1 g of alpha-trinositol in saline to a total volume of 10 ml. The stock solution was stored in a refrigerator for use within 24 hrs.
Animals. Pure strain male NMRI mice (average body weight 25 g) were transplanted with fragments of the MAC16 tumour subcutaneously into the flank by means of a trochar, selected from donor animals with established weight loss (Bibby M C et al., Characterization of transplantable adenocarcinoma in the mouse colon producing cachexia in the recipient animals. J Natl Cancer Inst 78 (1987) 539-546). Transplanted animals were given a rat and mouse breeding diet (Special Diet Services, Witham, UK) and water at lib. Weight loss was evident 10 to 12 days after tumour implantation. Just prior to the development of weight loss 24 animals were randomized into four groups (I-IV) of six animals each.
Administration of alpha-trinositol. A first experiment was started when the animals had lost about 5% of body weight. Aliquots (2.5 μl, Group I; 5 μl, Group II; 10 μl, Group III) of alpha-trinositol stock solution corresponding to doses of 10 mg/kg, 20 mg/kg, and 40 mg/kg for a 25 g animal were administered subcutaneously three times per day at 8.00, 12.00 and 16.00 hrs. The fourth group (Group IV; control) was given an intravenous injection of 10 μl of water. Body weight (FIG. 1), tumour volume (FIG. 2), and water and food intake were determined daily after the last injection.

[2] = test system: Angiotensin II induced chymotrypsin like activity in C2C12 myotubes; assay: Angiotensin II induced chymotrypsin-like activity in C2C12 myotubes; type: cell-based, murine; conditions: AT 100 μM
From the text: Protein degradation induced by PIF is mediated through up-regulation of the ubiquitin-proteasome pathway (Tisdale et al., 2004, Br. J. Cancer). […] A hexanoyl ester of AT (lipid soluble AT) has been produced as a slow release form, after hydrolysis by esterase.

[3] = test system: gastrocnemius muscle protein synthesis and degradation; assay: Protein synthesis and degradation in gastrocnemius muscle of MAC16 tumour-bearing mice; type: in vivo, NMRI mice; conditions: 40 mg/kg s.c., 3 times per day; p<0.001 vs control
Description: (§1) Administration of alpha-trinositol. Mice (n=6) bearing the MAC16 tumour were treated with AT (40 mg/kg) s.c., 3 times per day, for 5 days, while a control group received PBS. Protein synthesis and degradation were determined by the incorporation and release of L-[2,6-^3H]phenylalanine, as described in Smith et al., Cancer Res., 2005; 65:277-83. On the fourth day of treatment half of the group administered 0.4 mmol/L L-[2,6-^3H]phenylalanine in PBS (100 μl) by i.p. administration.
Protein analysis. After 24 h the animals were terminated and the gastrocnemius muscle was removed, washed with PBS and RPMI 1640, and the release of radioactivity during incubation for 2 h in RPMI 1640 was determined. Protein bound activity was determined by homogenising the muscles in 2% perchloric acid, and determining the radioactivity in the precipitate. Protein degradation was calculated by dividing the amount of radioactivity released into the medium over a 2 h period by the specific activity of the protein-bound radioactivity. To determine protein synthesis gastrocnemius muscles were incubated for 2 h in RMPI 1640, without phenol red, in the presence of L-[2,6-^3H]phenylalanine (37 MBq), and under an atmosphere of O2/CO2 (19:1). […] The rate of protein synthesis was calculated by dividing the protein-bound radioactivity by the acid-soluble material.

20S proteasome = 20S proteasome 'chymotrypsin-like' enzyme activity in gastrocnemius muscle; type: in vivo, NMRI mice; conditions: 40 mg/kg s.c., 3 times per day; after 4 days treatment
Description: as §1
Determination of proteasome activity The activity of the 20S proteasome was determined as the ‘chymotrypsin-like’ enzyme activity, the predominant proteolytic activity of the β5 subunits of the proteasome. Gastrocnemius muscles were rinsed with ice-cold PBS and homogenised in 20 mmol/L Tris-HCl (pH 7.5), 2 mmol/L ATP, 5 mmol/L MgCl2 and 1 mmol/L DTT followed by sonication. The sonicate was centrifuged for 10 minutes at 18,000×g at 4° C., and enzyme activity in the supernatant was determined by the method of Orino et al., FEBS Lett., 1991; 284:206-10, by determining the release of amino methyl coumarin (AMC) from the fluorogenic substrate LLVY-AMC. Activity was measured in the absence and presence of the specific proteasome inhibitor lactacystin (10 mmoles/L). Only lactacystin suppressible activity was considered to be proteasome specific.

[4] = test system: 20S proteasome α-subunits; assay: Western blot of gastrocnemius muscle: 20S proteasome α-subunits; type: in vivo, NMRI mice; conditions: 40 mg/kg s.c., 3 times per day
Description: as §1
(§2) Western blot analysis Gastrocnemius muscle (10 mg) was homogenised in Phosphosafe™ Extraction Reagent (500 μl) and centrifuged at 15000 g for 15 min. Samples of the cytosolic proteins (5 μg) were loaded on either a 10% (mTOR, myosin, eIF4E and eIF4G) 12% (PKR, eIF2α and actin) or 15% (4E-BP1) sodium dodecylsulphate-polyacrylamide gel (SDS-PAGE) and electrophoresed at 180 V for approximately 1 h. The extent of phosphorylation of 4E-BP1, and the association of 4E-BP1 and eIF4G with eIF4E was determined by Western blotting when eIF4E was extracted from the muscle samples by m^7GTP-Sepharose 4B-affinity binding, as previously described Eley ey al., Biochem J., 2007; 407:113-20, by loading 20 μg of protein. […] Blots were scanned by a densitometer to quantify differences.

PKR = assay: Western blot of gastrocnemius muscle: phospho PKR/total PKR; type: in vivo, NMRI mice; conditions: 40 mg/kg; tumour-bearing animals
Description: as §1, §2

eIF2α = assay: Western blot of gastrocnemius muscle: phospho eIF2α/total eIF2α; type: in vivo, NMRI mice; conditions: 40 mg/kg; tumour-bearing animals
Description: as §1, §2

mTOR = assay: Western blot of gastrocnemius muscle: phosphorylated (Ser2448) mTOR; type: in vivo, NMRI mice; conditions: 40 mg/kg; after 4 days treatment
Description: as §1, §2

**Q.** Which results are given for O=P(O)(O)O[C@@H]1[C@H](OP(=O)(O)O)[C@H](O)[C@@H](O)[C@H](O)[C@H]1OP(=O)(O)O [alpha-trinositol, 1-D-Myo-inositol 1,2,6-triphosphate]?
**A.** anti-cachexia effect (body weight) ([1]; 10 mg/kg s.c. three times per day): clear anti-cachexia effect; relative weight loss versus control group ([1]; day 0 to day 5, AT group): half of the control group; body weight lost ([1]; day 0 to day 5, AT group, s.c. three times per day (FIG. 3: 3×40 mg/kg), control lost ~4.7 g): ~2.3 g; body weight lost ([1]; day 1 (first day of treatment) to day 5, AT group, control lost 3.3 g): 1.15 g; weight loss as fraction of the control group ([1]; day 1 to day 5, AT group): ⅓; effect on Ang II-induced chymotrypsin-like enzyme activity [2]: completely attenuated; decrease in protein degradation in the gastrocnemius muscle [3]: 20%; increase of protein synthesis in the gastrocnemius muscle [3]: 50%; chymotrypsin activity (20S proteasome activity) in gastrocnemius muscle (20S proteasome): reduced down to levels found in normal non-tumour bearing mice; expression of the 20S proteasome α-subunits in gastrocnemius muscle [4]: down-regulates; expression of phospho PKR (ratio phosphoPKR/total PKR) (PKR): significant decrease; expression of phospho eIF2α (ratio to total eIF2α) (eIF2α): significant decrease; level of the phosphorylated (Ser2448) form of mTOR in gastrocnemius muscle (mTOR): completely reversed up to the values found in non tumour-bearing animals
